Test results from ChEMBL document CHEMBL3621042, “Design, synthesis of novel tryptophan derivatives for antiplatelet aggregation activity based on tripeptide pENW (pGlu-Asn-Trp)” (Eur J Med Chem, 2015).
Calls of active or inactive are those of the source. No cut-off for these calls is given here. Square brackets hold non-standard residues; d marks the D form. Peptide text beside a SMILES is read from it. pGlu = O=C1CC[C@@H](C(=O)O)N1

Assays:
[1] = target: T1, Integrin alpha-IIb/beta-3 (Oryctolagus cuniculus) (UniProt Q9TUN4+Q9TUN3); assay: Antagonist activity at GP2b/3a receptor in New Zealand rabbit platelet-rich plasma assessed as inhibition of ADP-induced platelet aggregation at 500 uM preincubated for 1 min followed by addition of ADP by aggregometer
[2] = target: T1, Integrin alpha-IIb/beta-3 (Oryctolagus cuniculus); assay: Antagonist activity at GP2b/3a receptor in New Zealand rabbit platelet-rich plasma assessed as inhibition of ADP-induced platelet aggregation at 100 uM preincubated for 1 min followed by addition of ADP by aggregometer
Rattus norvegicus [3] = assay: Antithrombotic activity in Sprague-Dawley rat arteriovenous shunt thrombosis model assessed as wet/dry weight reduction of thrombus at 3 mg/kg, iv incubated for 30 mins prior to testing; format: functional; design: scale not given: the % may be the effect or the level left
Rattus norvegicus [4] = assay: Antithrombotic activity in iv dosed Sprague-Dawley rat arteriovenous shunt thrombosis model assessed as wet/dry weight reduction of thrombus incubated for 30 mins prior to testing; format: functional, organism-based
Mus musculus [5] = assay: Toxicity in ICR mouse assessed as bleeding time at 0.3 mg/kg incubated for 30 mins prior to testing by tail transection method; format: organism-based; conditions: in vivo, 0.5 h
Mus musculus [6] = assay: Toxicity in ICR mouse assessed as bleeding time at 1 mg/kg incubated for 30 mins prior to testing by tail transection method; format: organism-based; conditions: in vivo, 0.5 h
Mus musculus [7] = assay: Toxicity in ICR mouse assessed as bleeding time at 3 mg/kg incubated for 30 mins prior to testing by tail transection method; format: organism-based; conditions: in vivo, 0.5 h
Rattus norvegicus [8] = assay: Antithrombotic activity in Sprague-Dawley rat arteriovenous shunt thrombosis model assessed as wet/dry weight reduction of thrombus at 1 mg/kg, iv incubated for 30 mins prior to testing; format: functional; design: scale not given: the % may be the effect or the level left
[9] = target: T1, Integrin alpha-IIb/beta-3 (Oryctolagus cuniculus); conditions: New Zealand, Plasma, 1 to 1000 uM
Description: Antagonist activity at GP2b/3a receptor in New Zealand rabbit platelet-rich plasma assessed as inhibition of ADP-induced platelet aggregation at 1 to 1000 uM preincubated for 1 min followed by addition of ADP by aggregometer

[10] = target: Integrin alpha-IIb/beta-3 (Homo sapiens, UniProt P05106+P08514); assay: Antagonist activity at GP2b/3a receptor (unknown origin) assessed as inhibition of interaction with fibrinogen after 2 hrs by ELISA; format: protein-complex assay
Chain of Integrin alpha-IIb/beta-3 (P05106 27-788 limits assumed): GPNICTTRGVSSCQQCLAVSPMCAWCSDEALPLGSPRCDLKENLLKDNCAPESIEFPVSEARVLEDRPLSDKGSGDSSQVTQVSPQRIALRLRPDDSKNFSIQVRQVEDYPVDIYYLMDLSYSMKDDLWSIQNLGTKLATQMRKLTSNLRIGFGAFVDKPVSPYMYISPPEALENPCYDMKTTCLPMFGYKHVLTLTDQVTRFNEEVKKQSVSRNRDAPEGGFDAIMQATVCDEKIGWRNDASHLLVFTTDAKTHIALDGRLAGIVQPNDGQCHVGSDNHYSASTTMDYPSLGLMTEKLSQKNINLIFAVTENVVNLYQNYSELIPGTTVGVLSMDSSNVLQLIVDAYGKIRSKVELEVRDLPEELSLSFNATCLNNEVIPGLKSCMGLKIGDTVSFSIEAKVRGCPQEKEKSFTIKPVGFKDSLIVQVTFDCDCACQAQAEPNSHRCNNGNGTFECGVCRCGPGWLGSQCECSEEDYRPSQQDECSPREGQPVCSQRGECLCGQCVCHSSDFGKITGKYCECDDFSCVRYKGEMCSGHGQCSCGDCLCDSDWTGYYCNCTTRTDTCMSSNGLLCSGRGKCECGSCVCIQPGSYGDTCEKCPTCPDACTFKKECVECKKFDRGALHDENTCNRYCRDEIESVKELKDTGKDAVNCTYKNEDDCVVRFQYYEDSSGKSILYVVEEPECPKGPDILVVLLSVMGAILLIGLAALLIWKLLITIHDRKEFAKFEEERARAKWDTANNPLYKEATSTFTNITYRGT
Chain of Integrin alpha-IIb/beta-3 (P08514 32-887 limits assumed): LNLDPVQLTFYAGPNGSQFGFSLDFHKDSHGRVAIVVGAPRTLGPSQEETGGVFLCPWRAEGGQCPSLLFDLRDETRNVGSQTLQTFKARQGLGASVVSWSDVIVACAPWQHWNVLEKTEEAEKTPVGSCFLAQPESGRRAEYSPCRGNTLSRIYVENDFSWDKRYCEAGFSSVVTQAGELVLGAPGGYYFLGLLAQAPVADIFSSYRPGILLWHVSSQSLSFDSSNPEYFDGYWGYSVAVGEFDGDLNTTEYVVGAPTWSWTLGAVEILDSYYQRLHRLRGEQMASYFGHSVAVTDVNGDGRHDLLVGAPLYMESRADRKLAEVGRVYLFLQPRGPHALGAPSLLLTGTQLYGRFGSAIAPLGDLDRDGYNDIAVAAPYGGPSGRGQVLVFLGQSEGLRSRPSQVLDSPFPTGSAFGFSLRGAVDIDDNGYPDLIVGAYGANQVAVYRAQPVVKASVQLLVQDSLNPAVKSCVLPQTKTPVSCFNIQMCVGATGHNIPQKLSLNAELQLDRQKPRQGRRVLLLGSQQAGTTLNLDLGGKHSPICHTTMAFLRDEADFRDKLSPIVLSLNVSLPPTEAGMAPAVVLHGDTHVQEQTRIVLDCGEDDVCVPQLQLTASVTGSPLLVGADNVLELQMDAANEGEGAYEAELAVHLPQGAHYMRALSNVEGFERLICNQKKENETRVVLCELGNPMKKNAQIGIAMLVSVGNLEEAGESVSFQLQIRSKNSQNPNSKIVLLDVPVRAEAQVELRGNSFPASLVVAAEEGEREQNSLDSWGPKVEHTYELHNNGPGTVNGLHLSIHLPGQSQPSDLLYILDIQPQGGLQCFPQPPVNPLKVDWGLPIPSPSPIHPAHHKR
Chain of Integrin alpha-IIb/beta-3 (P08514 891-1039 limits assumed): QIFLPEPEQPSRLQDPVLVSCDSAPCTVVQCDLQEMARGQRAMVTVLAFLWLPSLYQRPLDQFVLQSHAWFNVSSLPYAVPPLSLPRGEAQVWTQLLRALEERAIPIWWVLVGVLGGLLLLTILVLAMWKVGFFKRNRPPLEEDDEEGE

SMILES	inhibition [1] [%]	inhibition [2] [%]	other results
CCCCS(=O)(=O)N[C@@H](Cc1c[nH]c2ccc(OCCCCN3CCNCC3)cc12)C(=O)O	61.2	–	–
O=C(O)[C@H](Cc1c[nH]c2ccc(OCCCCN3CCNCC3)cc12)NS(=O)(=O)c1ccccc1	57.5	–	–
CC(=O)N[C@@H](CC(N)=O)C(=O)N[C@@H](Cc1c[nH]c2ccc(OCCCC3CCNCC3)cc12)C(=O)O	51.4	–	–
O=C(N[C@@H](Cc1c[nH]c2ccc(OCCCCC3CCNCC3)cc12)C(=O)O)c1ccc([N+](=O)[O-])cc1	–	43.5	–
Cc1ccc(S(=O)(=O)N[C@@H](Cc2c[nH]c3ccc(OCCCCC4CCNCC4)cc23)C(=O)O)cc1	–	43.1	–
CCCCS(=O)(=O)N[C@@H](Cc1c[nH]c2ccc(OCCCC3CCNCC3)cc12)C(=O)O	73.3	–	–
CCCC(=O)N[C@@H](Cc1c[nH]c2ccc(OCCC3CCNCC3)cc12)C(=O)O	29.5	–	–
COc1ccc(S(=O)(=O)N[C@@H](Cc2c[nH]c3ccc(OCCCCC4CCNCC4)cc23)C(=O)O)cc1	–	39.3	–
CCCCS(=O)(=O)N[C@@H](Cc1ccc(OCCCCC2CCNCC2)cc1)C(=O)O [TIROFIBAN]	–	–	inhibition [9]: Active; Time (Mus musculus [6]): 17 min; Activity (Rattus norvegicus [8]): Active
CCCCS(=O)(=O)N[C@@H](Cc1c[nH]c2ccc(OCCCN3CCNCC3)cc12)C(=O)O	88.9	–	–
O=C(N[C@@H](Cc1c[nH]c2ccc(OCCCCN3CCNCC3)cc12)C(=O)O)c1ccccc1	83.3	–	–
CCCC(=O)N[C@@H](Cc1c[nH]c2ccc(OCCCN3CCNCC3)cc12)C(=O)O	84.3	–	–
O=C(N[C@@H](Cc1c[nH]c2ccc(OCCCCC3CCNCC3)cc12)C(=O)O)c1cc(Cl)cc(Cl)c1	–	62.7	–
CCCCS(=O)(=O)N[C@@H](Cc1c[nH]c2ccc(OCCCCC3CCNCC3)cc12)C(=O)O	52.4	–	–
CCCC(=O)N[C@@H](Cc1c[nH]c2ccc(OCCCN3CCN(C)CC3)cc12)C(=O)O	13.5	–	–
NC(=O)C[C@H](NC(=O)[C@@H]1CCC(=O)N1)C(=O)N[C@@H](Cc1c[nH]c2ccccc12)C(=O)O ([pGlu]-Asn-Trp-OH)	38.7	21.4	Activity (Mus musculus [6]): Non-toxic; Activity (Rattus norvegicus [8]): inactive; IC50 [10]: 12.5 µM
O=C(N[C@@H](Cc1c[nH]c2ccc(OCCCN3CCNCC3)cc12)C(=O)O)c1ccccc1	82.4	–	–

More lines, main results first:

inhibition [1] [%]	inhibition [2] [%]	SMILES	other results
71.2	–	CCCC(=O)N[C@@H](Cc1c[nH]c2ccc(OCCCC3CCNCC3)cc12)C(=O)O	–
58.3	–	CCCC(=O)N[C@@H](Cc1c[nH]c2ccc(OCCN3CCNCC3)cc12)C(=O)O	–
35.2	–	CC(=O)N[C@@H](CC(N)=O)C(=O)N[C@@H](Cc1c[nH]c2ccccc12)C(=O)O (Ac-Asn-Trp-OH)	–
12.4	–	CCCC(=O)N[C@@H](Cc1c[nH]c2ccc(OCCN3CCN(C)CC3)cc12)C(=O)O	–
94.5	–	O=C(O)[C@H](Cc1c[nH]c2ccc(OCCCC3CCNCC3)cc12)NS(=O)(=O)c1ccccc1	–
–	53.4	O=C(N[C@@H](Cc1c[nH]c2ccc(OCCCCC3CCNCC3)cc12)C(=O)O)c1cccc(F)c1	–
55.3	–	O=C(O)[C@H](Cc1c[nH]c2ccc(OCCCN3CCNCC3)cc12)NS(=O)(=O)c1ccccc1	–
–	45.3	O=C(O)[C@H](Cc1c[nH]c2ccc(OCCCCC3CCNCC3)cc12)NS(=O)(=O)c1ccc([N+](=O)[O-])cc1	–
–	81.2	O=C(O)[C@H](Cc1c[nH]c2ccc(OCCCCC3CCNCC3)cc12)NS(=O)(=O)c1ccc(Br)cc1	Activity (Rattus norvegicus [3]): 41.7%; Activity (Rattus norvegicus [4]): Dose-dependent effect; Time (Mus musculus [5]): 10.6 min; Time (Mus musculus [6]): 11.8 min; Time (Mus musculus [7]): 13.5 min; Activity (Rattus norvegicus [8]): 26.6%
53.3	–	CCCC(=O)N[C@@H](Cc1c[nH]c2ccc(OCCCCC3CCNCC3)cc12)C(=O)O	–
79.1	–	CCCC(=O)N[C@@H](Cc1c[nH]c2ccc(OCCCCN3CCNCC3)cc12)C(=O)O	–
92.7	–	O=C(N[C@@H](Cc1c[nH]c2ccc(OCCCC3CCNCC3)cc12)C(=O)O)c1ccccc1	–
96.2	27.9	O=C(N[C@@H](Cc1c[nH]c2ccc(OCCCCC3CCNCC3)cc12)C(=O)O)c1ccccc1	–
–	54.9	O=C(N[C@@H](Cc1c[nH]c2ccc(OCCCCC3CCNCC3)cc12)C(=O)O)c1ccc(F)cc1	–
–	57.1	O=C(O)[C@H](Cc1c[nH]c2ccc(OCCCCC3CCNCC3)cc12)NS(=O)(=O)c1ccc(F)cc1	–
–	38.3	COc1ccc(C(=O)N[C@@H](Cc2c[nH]c3ccc(OCCCCC4CCNCC4)cc23)C(=O)O)cc1	–
99.2	53.8	O=C(O)[C@H](Cc1c[nH]c2ccc(OCCCCC3CCNCC3)cc12)NS(=O)(=O)c1ccccc1	–
